According to ChEMBL document CHEMBL1909046, “DrugMatrix in vitro pharmacology data”:

What was measured:
[1] = target: C-C chemokine receptor type 2 (Homo sapiens, UniProt P41597); type: cell membranes, Membrane; conditions: cho-k1; note: in other assays of this panel Not Active means under 50% inhibition at 10 µM
[2] = target: 5-hydroxytryptamine receptor 1B (Rattus norvegicus, UniProt P28564); type: cell membranes, Wistar, Cerebral cortex, Membrane; note: in other assays of this panel Not Active means under 50% inhibition at 10 µM
Chain of 5-hydroxytryptamine receptor 1B (P28564 whole entry): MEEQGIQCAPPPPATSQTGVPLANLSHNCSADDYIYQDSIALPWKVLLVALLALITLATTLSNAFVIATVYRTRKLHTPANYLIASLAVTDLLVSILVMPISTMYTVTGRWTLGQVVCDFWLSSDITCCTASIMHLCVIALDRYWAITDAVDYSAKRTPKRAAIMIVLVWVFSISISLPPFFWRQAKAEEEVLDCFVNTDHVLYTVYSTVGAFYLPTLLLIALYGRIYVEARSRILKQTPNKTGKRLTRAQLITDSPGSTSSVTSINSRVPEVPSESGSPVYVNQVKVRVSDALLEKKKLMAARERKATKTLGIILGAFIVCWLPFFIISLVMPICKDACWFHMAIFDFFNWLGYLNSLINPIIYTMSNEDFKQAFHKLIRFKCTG

[3] = DRUGMATRIX: Potassium Channel [KATP] radioligand binding (ligand: [3H] Glyburide); type: cell membranes, Membrane; conditions: hit-t15; Not Active = under 50% inhibition at 10 µM
[4] = DRUGMATRIX: Sodium/nucleoside co-transporter radioligand binding (ligand: nitrobenzylthioinosine); type: cell membranes, Cavia porcellus, Dunkin-Hartley, Cerebral cortex, Membrane; conditions: Not Active = under 50% inhibition at 10 µM
[5] = target: T1, Cytochrome P450 1A2 (Homo sapiens, UniProt P05177); conditions: bti-tn-5b1-4; note: in other assays of this panel Not Active means under 50% inhibition at 10 µM
T1 sequence (P05177 whole entry): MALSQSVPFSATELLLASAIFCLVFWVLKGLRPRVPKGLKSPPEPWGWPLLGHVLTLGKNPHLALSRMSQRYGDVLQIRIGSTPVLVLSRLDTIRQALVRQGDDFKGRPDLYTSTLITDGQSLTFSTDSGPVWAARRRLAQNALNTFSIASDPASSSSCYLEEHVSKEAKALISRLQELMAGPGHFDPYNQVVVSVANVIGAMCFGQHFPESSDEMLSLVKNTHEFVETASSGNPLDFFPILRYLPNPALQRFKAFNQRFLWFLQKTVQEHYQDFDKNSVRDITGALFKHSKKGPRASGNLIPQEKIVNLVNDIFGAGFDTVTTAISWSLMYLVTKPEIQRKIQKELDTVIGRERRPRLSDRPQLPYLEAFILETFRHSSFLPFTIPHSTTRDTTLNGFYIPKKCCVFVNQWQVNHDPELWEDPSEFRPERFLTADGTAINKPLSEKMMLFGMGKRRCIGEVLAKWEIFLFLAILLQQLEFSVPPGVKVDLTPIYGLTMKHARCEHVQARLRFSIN

[6] = target: Histamine H2 receptor (Homo sapiens, UniProt P25021); type: cell membranes, CHO-K1, Membrane; conditions: cho-k1; note: in other assays of this panel Not Active means under 50% inhibition at 10 µM
Chain of Histamine H2 receptor (P25021 whole entry): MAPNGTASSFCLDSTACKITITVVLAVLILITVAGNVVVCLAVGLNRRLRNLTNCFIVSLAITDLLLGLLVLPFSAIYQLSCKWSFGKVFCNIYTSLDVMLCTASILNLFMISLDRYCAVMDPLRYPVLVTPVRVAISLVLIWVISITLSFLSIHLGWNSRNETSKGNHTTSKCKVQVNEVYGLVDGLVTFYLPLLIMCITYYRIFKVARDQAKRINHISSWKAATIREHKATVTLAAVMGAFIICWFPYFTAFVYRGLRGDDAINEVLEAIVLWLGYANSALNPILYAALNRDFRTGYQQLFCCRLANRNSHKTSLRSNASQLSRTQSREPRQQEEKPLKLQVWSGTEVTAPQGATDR

[7] = target: T2, Alpha-1A adrenergic receptor (Rattus norvegicus, UniProt P43140); assay: DRUGMATRIX: Alpha-1A adrenergic receptor radioligand binding (ligand: prazosin); type: cell membranes, Wistar, Submaxillary gland, Membrane; conditions: Not Active = under 50% inhibition at 10 µM
T2 sequence (P43140 whole entry): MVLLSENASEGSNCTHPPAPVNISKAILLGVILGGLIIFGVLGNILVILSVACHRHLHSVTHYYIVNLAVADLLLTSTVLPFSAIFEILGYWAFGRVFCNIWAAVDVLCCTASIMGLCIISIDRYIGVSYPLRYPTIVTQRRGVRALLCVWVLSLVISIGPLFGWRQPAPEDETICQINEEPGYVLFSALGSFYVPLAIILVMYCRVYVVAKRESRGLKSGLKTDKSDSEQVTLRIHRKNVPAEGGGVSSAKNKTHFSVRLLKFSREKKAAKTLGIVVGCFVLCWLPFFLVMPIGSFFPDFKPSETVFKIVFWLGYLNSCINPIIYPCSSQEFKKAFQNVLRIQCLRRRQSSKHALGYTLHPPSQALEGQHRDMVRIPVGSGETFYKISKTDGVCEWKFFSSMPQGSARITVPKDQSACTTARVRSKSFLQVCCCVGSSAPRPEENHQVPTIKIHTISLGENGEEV

Chain of C-C chemokine receptor type 2 (P41597 whole entry): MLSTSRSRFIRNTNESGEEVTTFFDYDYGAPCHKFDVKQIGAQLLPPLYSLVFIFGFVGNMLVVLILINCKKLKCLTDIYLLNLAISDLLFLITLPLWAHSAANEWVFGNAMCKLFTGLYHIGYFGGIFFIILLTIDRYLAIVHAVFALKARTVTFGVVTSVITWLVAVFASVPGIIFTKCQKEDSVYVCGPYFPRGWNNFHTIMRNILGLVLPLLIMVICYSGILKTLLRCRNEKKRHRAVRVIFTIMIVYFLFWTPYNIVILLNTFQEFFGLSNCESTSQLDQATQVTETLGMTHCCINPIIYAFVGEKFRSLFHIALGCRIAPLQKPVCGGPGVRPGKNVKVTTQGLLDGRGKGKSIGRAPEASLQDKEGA

GADOPENTETATE DIMEGLUMINE
Not Active: IC50 [1] | Ki [1] | IC50 [2] | Ki [2] | IC50 [3] | Ki [3] | IC50 [4] | Ki [4] | IC50 [5] | Ki [5] | IC50 [6] | Ki [6] | IC50 [7] | Ki [7]

Nc1ccc2c3c(cccc13)C(=O)NC2=O
Not Active: IC50 [1] | IC50 [2] | IC50 [3] | Ki [3] | IC50 [4] | Ki [4] | IC50 [5] | Ki [5] | IC50 [6] | IC50 [7]

C[n+]1ccccc1/C=N/O.[Cl-] [PRALIDOXIME CHLORIDE]
Not Active: IC50 [1] | IC50 [2] | IC50 [3] | Ki [3] | IC50 [4] | Ki [4] | IC50 [5] | Ki [5] | IC50 [6] | IC50 [7]

NNc1nncc2ccccc12 [HYDRALAZINE]
Not Active: IC50 [1] | IC50 [2] | IC50 [3] | Ki [3] | IC50 [4] | Ki [4] | IC50 [5] | Ki [5] | IC50 [6] | IC50 [7]

O=c1cnn([C@@H]2O[C@H](CO)[C@@H](O)[C@H]2O)c(=O)[nH]1 [6-AZAURIDINE]
Not Active: IC50 [1] | IC50 [2] | IC50 [3] | Ki [3] | IC50 [4] | Ki [4] | IC50 [5] | Ki [5] | IC50 [6] | IC50 [7]

Cn1c(=O)c2c(ncn2CC(O)CO)n(C)c1=O (centres undefined) [DYPHYLLINE]
Not Active: IC50 [1] | IC50 [2] | IC50 [3] | Ki [3] | IC50 [4] | Ki [4] | IC50 [5] | Ki [5] | IC50 [6] | IC50 [7]

C[C@@H]1C[C@H]2[C@@H]3CCC4=CC(=O)C=C[C@]4(C)[C@@]3(F)[C@@H](O)C[C@]2(C)[C@H]1C(=O)CO [DESOXIMETASONE]
Not Active: IC50 [1] | IC50 [2] | IC50 [3] | Ki [3] | IC50 [4] | Ki [4] | IC50 [5] | Ki [5] | IC50 [6] | IC50 [7]

CC(C)(C)NC(=O)[C@H]1CC[C@H]2[C@@H]3CC[C@H]4NC(=O)C=C[C@]4(C)[C@H]3CC[C@]12C [FINASTERIDE]
Not Active: IC50 [1] | IC50 [2] | IC50 [3] | Ki [3] | IC50 [4] | Ki [4] | IC50 [5] | Ki [5] | IC50 [6] | IC50 [7]

CC1(C)S[C@@H]2[C@H](NC(=O)[C@H](N)c3ccccc3)C(=O)N2[C@H]1C(=O)O [AMPICILLIN]
Not Active: IC50 [1] | IC50 [2] | IC50 [3] | Ki [3] | IC50 [4] | Ki [4] | IC50 [5] | Ki [5] | IC50 [6] | IC50 [7]

CCN(CC)CCOCCC1=CCC2CC1C2(C)C (centres undefined) [MYRTECAINE]
Not Active: IC50 [1] | IC50 [2] | IC50 [3] | Ki [3] | IC50 [4] | Ki [4] | IC50 [5] | Ki [5] | IC50 [6] | IC50 [7]

COC(=O)Nc1nc2ccc([S+]([O-])c3ccccc3)cc2[nH]1 (centres undefined) [OXFENDAZOLE]
Not Active: IC50 [1] | IC50 [2] | IC50 [3] | Ki [3] | IC50 [4] | Ki [4] | IC50 [5] | Ki [5] | IC50 [6] | IC50 [7]

COC1=C(OC)C(=O)C(CCCCCCCCCCO)=C(C)C1=O [IDEBENONE]
Not Active: IC50 [1] | IC50 [2] | IC50 [3] | Ki [3] | IC50 [4] | Ki [4] | IC50 [5] | Ki [5] | IC50 [6] | IC50 [7]
